{"source": "patent US6596724B2", "about": "“Oxadiazole and thiadiazole derivatives of dihydropyridine NPY antagonists” (Bristol-Myers Squibb Company, priority 2000, dated 2003)", "key": {"[1]": {"system": "NPY-induced contractions in guinea pig basilar artery", "conditions": "cited from earlier work"}, "[2]": {"target": "T1, I-125 Bolton-Hunter labeled NPY in human neuroblastoma cells (SK-N-MC) (Homo sapiens, UniProt P25929)", "T1 construct": "displaces I-125 Bolton-Hunter labeled NPY in human neuroblastoma cells (SK-N-MC); host or cells: SK-N-MC human neuroblastoma cells (endogenous receptor)", "T1 sequence (P25929 1-384)": "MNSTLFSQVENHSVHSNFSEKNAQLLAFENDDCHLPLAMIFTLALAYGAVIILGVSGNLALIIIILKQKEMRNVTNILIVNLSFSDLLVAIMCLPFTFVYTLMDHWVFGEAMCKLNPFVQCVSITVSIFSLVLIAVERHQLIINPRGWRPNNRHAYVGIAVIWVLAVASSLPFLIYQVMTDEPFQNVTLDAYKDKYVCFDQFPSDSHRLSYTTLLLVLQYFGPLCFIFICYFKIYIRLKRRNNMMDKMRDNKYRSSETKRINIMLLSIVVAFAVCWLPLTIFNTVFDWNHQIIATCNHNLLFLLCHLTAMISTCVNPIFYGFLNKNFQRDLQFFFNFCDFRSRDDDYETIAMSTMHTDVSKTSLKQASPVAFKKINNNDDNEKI", "conditions": "cited from earlier work"}, "[3]": {"system": "NPY-induced pressor response", "conditions": "pithed rat; cited from earlier work"}, "[4]": {"system": "NPY-induced increase in intracellular Ca++ in SK-N-MC cells", "conditions": "cited from earlier work"}, "[5]": {"system": "NPY-related increases in diastolic blood pressure", "conditions": "anesthetized guinea pig model; cited from earlier work"}, "[6]": {"target": "T2, I-125 labeled NPY and PYY in human neuroblastoma cells (Homo sapiens, UniProt P25929)", "T2 construct": "displacing I-125 labeled NPY and PYY in human neuroblastoma cells", "T2 sequence (P25929 1-384)": "T1 sequence (P25929 1-384)", "conditions": "cited from earlier work"}}}
{"smiles": "COC(=O)C1=C(C)NC(C)=C(C(=O)OC)C1c1cccc(NC(=O)NNC(=O)CN2CCC(c3ccccc3)CC2)c1", "note": "[Example 18, 4-[3-[[[2-[(4-Phenyl-1-piperidinyl)acetyl]-hydrazino]-carbonyl]amino]phenyl]1,4-dihydro-2,6-dimethyl-3,5-pyridinedicarboxylic acid, dimethyl ester]", "values": [{"measurement": "melting point", "value": "138 to 143", "unit": "°C"}]}
{"smiles": "O=P(O)(O)OC1[C@H](OP(=O)(O)O)[C@H](O)C(O)[C@H](O)[C@H]1OP(=O)(O)O", "note": "(stereo partly drawn) [D-Myo-inositol-1,2,6-triphosphate]", "values": [{"measurement": "antagonism of NPY-induced contractions", "setting": "[1]", "value": "potent but non-competitive antagonist"}]}
{"smiles": "COC(=O)C1=C(C)NC(C)=C(C(=O)OC)C1c1cccc(NC(=S)NNC(=O)CN2CCC(c3cccc(OC)c3)CC2)c1", "note": "[Example 20, 4-[3-[[[2-[[4-(3-Methoxyphenyl)-1-piperidinyl)acetyl]-hydrazino]-carbonothioyl]amino]phenyl]1,4-dihydro-2,6-dimethyl-3,5-pyridinedicarboxylic acid, dimethyl ester]", "values": [{"measurement": "melting point", "value": "113 to 116", "unit": "°C"}]}
{"smiles": "COC(=O)C1=C(C)NC(C)=C(C(=O)OC)C1c1ccc(F)c(NC(=S)NNC(=O)CN2CCC(c3cccc(OC)c3)CC2)c1", "note": "[Example 22, 4-[4-Fluoro-3-[[[2-[[4-(3-methoxyphenyl)-1-piperidinyl]acetyl]-hydrazino]-carbonothioyl]amino]phenyl]1,4-dihydro-2,6-dimethyl-3,5-pyridinedicarboxylic acid, dimethyl ester]", "values": [{"measurement": "melting point", "value": "114 to 120", "unit": "°C"}]}
{"smiles": "NC(N)=NCCC[C@@H](NC(=O)C(c1ccccc1)c1ccccc1)C(=O)NCc1ccc(O)cc1", "note": "[BIBP 3226]", "values": [{"measurement": "displacement of I-125 Bolton-Hunter labeled NPY", "setting": "[2]", "value": "displaces"}, {"measurement": "antagonism of NPY-induced pressor response", "setting": "[3]", "value": "antagonizing"}, {"measurement": "antagonism of NPY-induced increase in intracellular Ca++", "setting": "[4]", "value": "antagonized"}]}
{"smiles": "COC(=O)C1=C(C)NC(C)=C(C(=O)OC)C1c1cccc(NC(=S)NNC(=O)CN2CCC(c3ccccc3)CC2)c1", "note": "[Example 19, 4-[3-[[[2-[(4-Phenyl-1-piperidinyl)acetyl]-hydrazino]-carbonothioyl]amino]phenyl]1,4-dihydro-2,6-dimethyl-3,5-pyridinedicarboxylic acid, dimethyl ester]", "values": [{"measurement": "melting point", "value": "125 to 130", "unit": "°C"}]}
{"smiles": "CN(C)CC1CCC(CN=C(N)c2ccc(C[C@@H](NC(=O)[C@@H](Cc3ccccc3)NS(=O)(=O)c3ccc4ccccc4c3)C(=O)N3CCCC3)cc2)CC1", "note": "(stereo partly shown) [SR 120819A]", "values": [{"measurement": "antagonism of NPY-related increases in diastolic blood pressure", "setting": "[5]", "value": "antagonized"}, {"measurement": "displacement of I-125 labeled NPY and PYY", "setting": "[6]", "value": "displacing"}]}
